Reference: US20250127168A1, “METHOD FOR PATHOGENS, MICROORGANISMS, AND PARASITES INACTIVATION” (New York Blood Center, Inc., priority 2018, published 2025)

Assays:
[1] = Neutralization of compound VI by sodium thiosulfate (LCMS); type: physicochemical; details: for first-order rate constant of reaction with Na2S2O3: Compound VI 100 μM, 1 mM Na2S2O3 in PBS
Experimental: The rate of reaction of Compound VI, 100 μM with 1 mM Na2S2O3 in PBS was determined by LCMS analysis of the reaction mixture (FIG. 19). […] LCMS analysis of the reaction product confirmed that it was the bisthiosulfate ester (compound XXIII formed by reacting of compound VI with two molecules of Na2S2O3.

[2] = system: whole blood or red blood cells concentrate; experiment: Quality of treated whole blood and red blood cells concentrate (complete blood count and biochemistry); details: 500 μM for 6 hours at RT, neutralized with sodium thiosulfate; storage at 4-6° C., weekly testing
Experimental: Ten mL samples of whole blood or red blood cells concentrate (RBCC, 25 mL) were treated with 500 μM compound VI for 6 hours at RT. The residual compound VI was neutralized by the same volume of 10 mM sodium thiosulfate for 2 hours at RT. For controls, identical samples of whole blood or RBCC were treated with saline and sodium thiosulfate without compound VI or with saline only without compound VI and/or thiosulfate. Aliquots of whole blood and RBCC from each sample were subjected to complete blood count and biochemistry analysis using IDEXX Procyte Dx Hematology Analyzer and IDEXX Catalyst Dx Chemistry Analyzer according to manufacturer recommendations. The samples were analyzed immediately after the treatment and re-analyzed after one week for whole blood and every week for 5 weeks of storage at 4-6° C. for RBCC. The following parameters were measured: RBC number, hemoglobin, hematocrit, mean corpuscular volume, mean corpuscular hemoglobin, red cell distribution, reticulocyte count, platelets, mean platelet volume, white blood cells, neutrophils, lymphocytes, monocytes, eosinophils, basophils, chloride, potassium, sodium, glucose, and lactate concentrations.

[3] = Neutralization and covalent sequestration of compound VI by nucleophile-functionalized solid phase agents (LCMS); type: physicochemical
Experimental: Sulfonylchloride functionalized divinylbenzene crosslinked polystyrene resin (Sigma-Aldrich Cat. no. 498211-5g) was mixed with 5 ml 2M sodium hydrogen sulfide solution (prepared by saturation of sodium sulfide nonahydrate solution in water with hydrogen sulfide) under argon. The mixture was sonicated for ca. 3 min and then stirred at 55° C. for 4 h. After that the resin was filtered and washed three times with deaerated water, there times with deaerated methanol, and two times with deaerated ether. The resin was dried under stream of argon and then under vacuum. Obtained, 1.039 g dry resin (compound XXVIII), thiosulfonate functionalized polystyrene/divinylbenzene resin. An aliquot of compound XXVIII was added to a solution of compound VI, 100 μM in PBS.
Aminoethyl groups functionalized methacrylate resin (Purolite Ltd, Llantrisant, Wales, UK, Product No. D6195, trade name Chromalite MAM2, 0.5 mmol amino groups per ml wet resin, 68% moisture), 300 mg, was dried by three evaporation from 2 ml dry N,N-dimethylformamide under vacuum at 35° C. […] The load of mercapto groups on the product, compound XXX, was determined using the Elman's procedure (Riener, C. K.; Kada, G.; Gruber, H. J., Anal. Bioanal. Chem., 2002, 373, 266-76) and was 0.21 mmol per gram of wet resin. […]
Tentagel S NH2 resin, 200 mg (Rapp Polymere GmbH, Tuebingen, Germany, product No. S30132, divinylbenzene cross-linked polystyrene resin grafted with amino group terminated polyethylene glycol) was swollen for couple of hours in 5 ml dry N,N-dimethylformamide and then the excess of solvent was pipetted off Benzotriazol-1-yl-oxytripyrrolidinophosphonium hexafluorophosphate, 151 mg, 2-(4-(triphenylmethylthio)phenyl)acetic acid, 119 mg, and anhydrous 1-hydroxybenzotriazole, 44 mg, were dissolved in 1.2 mL dry N,N-dimethylformamide. […] The mercapto groups load was determined using the Elman's procedure and was 0.12 mmol per gram of dry resin. […]

[4] = system: 21-mer synthetic oligodeoxyribonucleotide (SEQ ID NO:1); experiment: Reactivity toward nucleic acids, HPLC; type: biochemical; details: 10 μM oligonucleotide, 200 μM compound, PBS pH 6.7, 37° C., 6 h
[5] = Neutralization of compound X with methyl thiosalicylate (LCMS); type: physicochemical; details: 100 μM compound X, 10 mM methyl thiosalicylate, PBS
Experimental: The rate of neutralization of […] can be determined by plotting of logarithm of compound X concentration, determined by its peak area against the time of incubation.

[6] = system: synthetic 23-mer oligoribonucleotide (SEQ ID NO:2); experiment: Reactivity toward nucleic acids, mass spectrometry; type: biochemical; details: 100 μM oligonucleotide, 100 μM compound, PBS pH 7, room temperature, 6 min

Structure (SMILES) | residual compound VI concentration ([1]; 10 mM Na2S2O3, 25° C., after 2 h, extrapolated) | first-order rate constant of reaction with Na2S2O3 ([1]; 6° C.) | first-order rate constant of reaction with Na2S2O3 ([1]; 25° C.) | half-live of compound VI ([1]; in 10 mM Na2S2O3 and 25° C., extrapolated from rate) | cellular or biochemical characteristics of treated blood versus controls [2] | concentration of compound VI in the mixture ([3]; 100 μM in PBS with mercaptophenyl TentaGel S resin XXXII) | concentration of compound VI in the mixture ([3]; 100 μM in PBS with mercaptophenyl methacrylate resin XXX) | concentration of compound VI in the mixture ([3]; 100 μM in PBS with thiosulfonate functionalized resin XXVIII) | covalent adducts with the oligonucleotide (HPLC) [4] | compound X half-life T1/2 [5] | covalent adduct with the oligonucleotide (MS) [6]
CN(CCCCN(C)CCCN1CC1)CCCN1CC1 [Compound VI, N^1,N^4-bis(3-(aziridin-1-yl)propyl)-N^1,N^4-dimethylbutane-1,4-diamine] | 5.5e-07 pM | 0.00614 min⁻¹ | 0.0379 min⁻¹ | 1.83 min | No differences in cellular or biochemical characteristics | time dependent decreasing | time dependent decreasing | time dependent decreasing | – | – | –
CN(CCCCN(C)CCCN1CC1)CCCN(C)CCCN1CC1 [Compound X] | – | – | – | – | – | – | – | – | appearance of covalent adducts | 16.6 min | covalent mono-adduct
